Reference: ChEMBL document CHEMBL1125521, “Oxygen isosteric derivatives of 3-(3-hydroxyphenyl)-N-n-propylpiperidine” (J Med Chem, 1992)
Active and inactive are the calls of the source. The rule behind the calls is not given here.

Legend:
D(2) dopamine receptor = D(2) dopamine receptor (Rattus norvegicus, UniProt P61169); assay: Ability to displace [3H]spiroperidol, from dopamine receptor D2 specific binding sites of rat striatal membranes; parameters: species or system Striatum, Membrane
[1] = target: D(2) dopamine receptor (Rattus norvegicus) (UniProt P61169); assay: Displacement of [3H]spiroperidol from dopamine receptor D2 binding sites of rat striatal membranes; inactive; format: cell membranes; conditions: Membrane
Sequence of D(2) dopamine receptor (Rattus norvegicus) (P61169 whole entry): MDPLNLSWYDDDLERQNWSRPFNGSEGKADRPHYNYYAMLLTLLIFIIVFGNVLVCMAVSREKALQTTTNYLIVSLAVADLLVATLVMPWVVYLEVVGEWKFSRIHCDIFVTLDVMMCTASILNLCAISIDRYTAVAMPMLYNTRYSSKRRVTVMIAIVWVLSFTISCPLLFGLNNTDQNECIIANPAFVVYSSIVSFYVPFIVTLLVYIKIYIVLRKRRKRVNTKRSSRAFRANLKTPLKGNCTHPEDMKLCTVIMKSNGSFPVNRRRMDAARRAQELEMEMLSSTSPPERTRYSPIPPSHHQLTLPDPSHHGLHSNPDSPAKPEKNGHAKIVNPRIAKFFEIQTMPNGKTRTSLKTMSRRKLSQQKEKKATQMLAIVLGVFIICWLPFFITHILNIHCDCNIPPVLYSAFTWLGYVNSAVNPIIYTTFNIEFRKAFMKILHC

[2] = target: Serotonin 1 (5-HT1) receptor (Rattus norvegicus, UniProt P28564+P30940+P19327+P28565); assay: Compound was evaluated for the inhibition of [3H]5-HT (concentration of 12 nM) specific binding to rat hippocampus; format: tissue-based

Sequence of D(2) dopamine receptor (P61169 whole entry): as above

Row | SMILES | IC50 (D(2) dopamine receptor) [µM] | Activity [1] | IC50 [2] [µM]
1 | CCCN1CCCC(c2ccccc2OC)C1 (stereo not given) | 8 |  | 
2 | CCCN1CCOC(c2cccc([N+](=O)[O-])c2)C1 (stereo not given) |  | inactive | 
3 | CCCN1CCOC(c2ccsc2)C1 (stereo not given) |  | inactive | 
4 | CCCN1CCOC(c2ccccc2OC)C1 (stereo not given) |  | inactive | 1
5 | CCCN1CCOC(c2ccccc2Cl)C1 (stereo not given) |  | inactive | 3
6 | CCCN1CCOC(c2cccs2)C1 (stereo not given) |  | inactive | 
7 | CCCN1CCOC(c2cccc(OC)c2)C1 (stereo not given) |  | inactive | 1
8 | CCCN1CCOC(c2ccccc2O)C1 (stereo not given) |  | inactive | 
9 | CCCN1CCCC(c2ccccc2O)C1 (stereo not given) | 7 |  | 
10 | CCCN1CCOC(c2cccc(O)c2)C1 (stereo not given) |  | inactive | 
11 | CCCN1CCOC(c2cccc(Cl)c2)C1 (stereo not given) |  | inactive | 5
